The values below are quoted from earlier work in patent US5639739A, “Imidazole containing aminoboronic acids” (The DuPont Merck Pharmaceutical Company, priority 1995, dated 1997).

For one series, the target named is thrombin. The settings on record: literature values.
Another series deals with human thrombin (Homo sapiens, UniProt P00734).
Another series deals with chymotrypsin (Bos taurus, UniProt P00766). The settings on record: Matteson et al. 1981.

On to `N#CC(CCCNC(=N)N)NC(=O)[C@@H]1CCCN1C(=O)[C@H](N)Cc1ccccc1` (stereo partly drawn) [D-phenylalanyl-prolyl-NHCH((CH2)3 NHC(=NH)NH2)--CN], for which the Ki (in general, a measure of affinity in units of concentration, obtained from inhibition or displacement) at thrombin was 700 nM.
With `N=C(N)NCCC[C@H](NC(=O)[C@@H]1CCCN1C(=O)[C@H](N)Cc1ccccc1)C(=O)CCl` [H-(D) Phe-Pro-ArgCH2 Cl], on human thrombin (Kettner and Shaw 1979), the “kind of inhibition of human thrombin” value is given as “selective but irreversible inhibitor”.
For `CC(=O)N[C@@H](Cc1ccccc1)B(O)O` [Acborophe-OH, R-1-acetamido-2-phenylethane boronic acid], the Ki on chymotrypsin is 4 µM.
As for `N=C(N)NCCC[C@@H](C=O)NC(=O)[C@@H]1CCCN1C(=O)[C@H](N)Cc1ccccc1` [D-phenylalanyl-prolyl-arginal], the Ki on human thrombin (human thrombin, literature values) is 75 nM.
